Measured values: ChEMBL document CHEMBL4152230, “Discovery of N-{3-[(ethanimidoylamino)methyl]benzyl}-l-prolinamide dihydrochloride: A new potent and selective inhibitor of the inducible nitric oxide synthase as a promising agent for the therapy of malignant glioma” (Eur J Med Chem, 2018)
The source made the active and inactive calls. No cut-off for these calls is given here.

Legend:
[1] = biological target: T1, Nitric oxide synthase, inducible (Mus musculus, UniProt P29477); assay: Inhibition of recombinant mouse iNOS using [3H]L-arginine as substrate preincubated for 15 mins followed by NADPH addition measured after 20 mins in presence of FMN/FAD by liquid scintillation counting method
T1 sequence (P29477 whole entry): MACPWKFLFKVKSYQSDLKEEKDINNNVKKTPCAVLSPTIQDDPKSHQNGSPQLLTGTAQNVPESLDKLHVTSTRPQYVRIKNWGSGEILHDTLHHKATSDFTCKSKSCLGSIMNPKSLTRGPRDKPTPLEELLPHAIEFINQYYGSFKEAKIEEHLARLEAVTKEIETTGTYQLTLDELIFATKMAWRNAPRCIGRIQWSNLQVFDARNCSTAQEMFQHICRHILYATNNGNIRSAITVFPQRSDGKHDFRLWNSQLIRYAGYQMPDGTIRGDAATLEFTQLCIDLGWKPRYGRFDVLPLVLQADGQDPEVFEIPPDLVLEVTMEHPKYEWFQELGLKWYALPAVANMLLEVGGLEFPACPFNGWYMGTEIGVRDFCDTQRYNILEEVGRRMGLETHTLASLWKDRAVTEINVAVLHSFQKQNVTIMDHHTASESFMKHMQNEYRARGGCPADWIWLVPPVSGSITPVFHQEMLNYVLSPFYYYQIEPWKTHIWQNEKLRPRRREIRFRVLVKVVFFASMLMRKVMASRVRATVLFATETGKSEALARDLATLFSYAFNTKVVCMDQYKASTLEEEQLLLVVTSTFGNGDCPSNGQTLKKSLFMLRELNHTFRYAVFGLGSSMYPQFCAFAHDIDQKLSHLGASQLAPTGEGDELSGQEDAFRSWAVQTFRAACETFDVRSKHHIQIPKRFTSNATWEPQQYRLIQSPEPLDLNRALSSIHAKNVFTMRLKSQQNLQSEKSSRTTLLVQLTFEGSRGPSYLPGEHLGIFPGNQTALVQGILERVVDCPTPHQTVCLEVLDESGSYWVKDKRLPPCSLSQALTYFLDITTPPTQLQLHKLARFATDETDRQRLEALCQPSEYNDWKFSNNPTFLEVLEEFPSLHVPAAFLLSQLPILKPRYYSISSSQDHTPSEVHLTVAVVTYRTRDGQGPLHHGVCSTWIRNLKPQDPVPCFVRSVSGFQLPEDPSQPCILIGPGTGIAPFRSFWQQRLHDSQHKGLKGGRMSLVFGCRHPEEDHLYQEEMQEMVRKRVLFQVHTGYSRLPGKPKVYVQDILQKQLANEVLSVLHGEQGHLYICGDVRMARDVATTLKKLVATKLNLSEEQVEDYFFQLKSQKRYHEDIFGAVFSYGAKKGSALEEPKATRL

[2] = Selectivity index, ratio of IC50 for recombinant bovine eNOS to IC50 for recombinant mouse iNOS
Nitric oxide synthase 3 = biological target: T2, Nitric oxide synthase 3 (Bos taurus, UniProt P29473); assay: Inhibition of recombinant bovine eNOS using [3H]L-arginine as substrate preincubated for 15 mins followed by NADPH addition measured after 20 mins in presence of FMN/FAD by liquid scintillation counting method
T2 sequence (P29473 whole entry): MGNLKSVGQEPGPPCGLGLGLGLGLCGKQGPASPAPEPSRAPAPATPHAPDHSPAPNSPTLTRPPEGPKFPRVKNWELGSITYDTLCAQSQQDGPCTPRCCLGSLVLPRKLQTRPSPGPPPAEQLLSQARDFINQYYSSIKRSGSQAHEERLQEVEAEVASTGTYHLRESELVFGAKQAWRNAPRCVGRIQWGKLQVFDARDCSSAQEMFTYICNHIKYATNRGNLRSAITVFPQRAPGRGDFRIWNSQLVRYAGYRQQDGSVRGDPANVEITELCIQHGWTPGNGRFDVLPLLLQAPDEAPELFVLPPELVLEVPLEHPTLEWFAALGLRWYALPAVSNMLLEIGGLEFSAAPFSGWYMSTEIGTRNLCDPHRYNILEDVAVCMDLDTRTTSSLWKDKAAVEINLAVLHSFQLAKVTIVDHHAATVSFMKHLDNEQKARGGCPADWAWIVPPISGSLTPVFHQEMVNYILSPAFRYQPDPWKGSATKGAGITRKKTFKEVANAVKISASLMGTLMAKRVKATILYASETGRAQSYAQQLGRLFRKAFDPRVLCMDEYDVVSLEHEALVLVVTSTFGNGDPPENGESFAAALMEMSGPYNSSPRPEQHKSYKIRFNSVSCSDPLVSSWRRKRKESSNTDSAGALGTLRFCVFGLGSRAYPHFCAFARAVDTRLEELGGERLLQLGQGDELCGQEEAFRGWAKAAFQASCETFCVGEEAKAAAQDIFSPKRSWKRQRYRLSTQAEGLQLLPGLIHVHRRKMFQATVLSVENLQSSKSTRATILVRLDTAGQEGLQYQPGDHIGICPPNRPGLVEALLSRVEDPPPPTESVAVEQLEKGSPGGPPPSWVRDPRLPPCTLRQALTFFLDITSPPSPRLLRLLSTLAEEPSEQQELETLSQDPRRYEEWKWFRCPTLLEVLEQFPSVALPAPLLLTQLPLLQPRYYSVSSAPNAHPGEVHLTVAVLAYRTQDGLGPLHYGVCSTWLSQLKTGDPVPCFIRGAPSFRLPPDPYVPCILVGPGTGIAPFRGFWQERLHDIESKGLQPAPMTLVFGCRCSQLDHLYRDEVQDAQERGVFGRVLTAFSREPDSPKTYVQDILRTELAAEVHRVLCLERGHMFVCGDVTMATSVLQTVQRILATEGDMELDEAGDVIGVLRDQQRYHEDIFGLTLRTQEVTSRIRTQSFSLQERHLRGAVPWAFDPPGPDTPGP

[3] = Cytotoxicity against rat CTX/TNA2 cells assessed as cell proliferation at 1 mM after 48 hrs by MTT assay relative to control; type: cell-based; conditions: read-out: Activity
C6 [4] = assay: Cytotoxicity against rat C6 cells assessed as LDH release at 0.25 mM after 72 hrs by CytoTox96 non-radioactive assay (reference value: 5.41%); type: functional
C6 [5] = assay: Cytotoxicity against rat C6 cells assessed as cell proliferation at 0.25 mM after 48 hrs by MTT assay relative to control; type: functional; conditions: C6, 48 h, read-out: Activity
[6] = Half life in human plasma by HPLC analysis; type: ADME, cell-free
[7] = Cytotoxicity against rat CTX/TNA2 cells assessed as inhibition of cell proliferation at 0.25 to 2 mM up to 72 hrs by MTT assay; type: cell-based; conditions: 2000 µM
Nitric oxide synthase 1 = Nitric oxide synthase 1 (Rattus norvegicus, UniProt P29476); assay: Inhibition of recombinant rat nNOS using [3H]L-arginine as substrate preincubated for 15 mins followed by NADPH addition measured after 20 mins in presence of FMN/FAD by liquid scintillation counting method
Sequence of Nitric oxide synthase 1 (P29476 whole entry): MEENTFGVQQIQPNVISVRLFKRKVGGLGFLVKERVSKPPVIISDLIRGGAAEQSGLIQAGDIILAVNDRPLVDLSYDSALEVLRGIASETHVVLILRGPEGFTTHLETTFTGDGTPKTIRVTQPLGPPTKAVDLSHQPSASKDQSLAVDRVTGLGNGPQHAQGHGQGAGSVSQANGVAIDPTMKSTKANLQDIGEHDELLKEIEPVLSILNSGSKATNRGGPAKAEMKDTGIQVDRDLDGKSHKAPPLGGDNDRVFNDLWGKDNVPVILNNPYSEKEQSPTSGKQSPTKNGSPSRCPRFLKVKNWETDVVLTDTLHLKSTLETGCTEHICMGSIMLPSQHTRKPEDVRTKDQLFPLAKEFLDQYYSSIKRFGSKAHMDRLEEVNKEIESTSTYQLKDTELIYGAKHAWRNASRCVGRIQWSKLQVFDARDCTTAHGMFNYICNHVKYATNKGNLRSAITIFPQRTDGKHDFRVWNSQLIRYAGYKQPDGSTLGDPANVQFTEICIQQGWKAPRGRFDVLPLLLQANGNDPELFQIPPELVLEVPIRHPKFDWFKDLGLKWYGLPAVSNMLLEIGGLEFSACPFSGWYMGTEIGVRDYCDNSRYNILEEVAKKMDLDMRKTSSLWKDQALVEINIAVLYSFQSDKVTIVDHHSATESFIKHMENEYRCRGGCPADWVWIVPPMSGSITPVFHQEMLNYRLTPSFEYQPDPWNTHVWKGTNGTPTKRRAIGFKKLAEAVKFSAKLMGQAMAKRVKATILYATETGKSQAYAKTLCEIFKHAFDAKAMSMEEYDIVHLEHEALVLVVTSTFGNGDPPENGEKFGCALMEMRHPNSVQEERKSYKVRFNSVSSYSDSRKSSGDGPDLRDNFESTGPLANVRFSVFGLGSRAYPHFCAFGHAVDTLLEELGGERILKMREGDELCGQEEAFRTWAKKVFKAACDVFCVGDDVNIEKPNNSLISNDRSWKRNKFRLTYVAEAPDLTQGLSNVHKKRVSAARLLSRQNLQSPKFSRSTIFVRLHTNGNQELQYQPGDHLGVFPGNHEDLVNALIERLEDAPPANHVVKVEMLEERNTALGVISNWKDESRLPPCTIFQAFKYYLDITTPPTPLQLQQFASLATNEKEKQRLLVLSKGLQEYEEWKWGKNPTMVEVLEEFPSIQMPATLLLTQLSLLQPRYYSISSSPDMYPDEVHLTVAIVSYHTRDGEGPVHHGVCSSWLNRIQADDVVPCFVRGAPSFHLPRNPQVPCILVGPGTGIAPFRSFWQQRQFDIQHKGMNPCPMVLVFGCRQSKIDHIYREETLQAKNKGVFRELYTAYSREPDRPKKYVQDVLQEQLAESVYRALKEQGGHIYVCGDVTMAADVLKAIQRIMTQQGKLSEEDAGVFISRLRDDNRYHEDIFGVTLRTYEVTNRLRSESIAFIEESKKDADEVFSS

C6 [8] = assay: Cytotoxicity against rat C6 cells assessed as inhibition of cell proliferation after 24 to 48 hrs by MTT assay; type: functional, cell-based
C6 [9] = assay: Cytotoxicity against rat C6 cells assessed as LDH release at 1.5 mM after 72 hrs by CytoTox96 non-radioactive assay (reference value: 5.41%); type: functional
[10] = Half life in pH 2 HCl after 24 hrs by HPLC analysis; type: physicochemical; conditions: HCl solution, pH 2, pH 2
C6 [11] = assay: Cytotoxicity against rat C6 cells assessed as cell proliferation at 1 mM after 72 hrs by MTT assay relative to control; type: functional; conditions: C6, 72 h, read-out: Activity
C6 [12] = assay: Cytotoxicity against rat C6 cells assessed as LDH release at 0.5 mM after 72 hrs by CytoTox96 non-radioactive assay (reference value: 5.41%); type: functional
C6 [13] = assay: Cytotoxicity against rat C6 cells assessed as cell proliferation at 1.5 mM after 72 hrs by MTT assay relative to control; type: functional; conditions: C6, 72 h, read-out: Activity
C6 [14] = assay: Cytotoxicity against rat C6 cells assessed as cell proliferation at 1 mM after 24 hrs by MTT assay relative to control; type: functional; conditions: C6, 24 h, read-out: Activity
C6 [15] = assay: Cytotoxicity against rat C6 cells assessed as cell proliferation at 2 mM after 24 hrs by MTT assay relative to control; type: functional; conditions: C6, 24 h, read-out: Activity
[16] = Selectivity ratio of IC50 for recombinant rat nNOS to IC50 for recombinant mouse iNOS
C6 [17] = assay: Cytotoxicity against rat C6 cells assessed as cell proliferation at 2 mM after 72 hrs by MTT assay relative to control; type: functional; conditions: C6, 72 h, read-out: Activity
C6 [18] = assay: Cell cycle arrest in rat C6 cells assessed as accumulation at G1 phase at 1.5 mM after 72 hrs by propidium iodide staining based flow cytometry (reference value: 63.97%); type: functional
C6 [19] = assay: Cytotoxicity against rat C6 cells assessed as LDH release at 1 mM after 72 hrs by CytoTox96 non-radioactive assay (reference value: 5.41%); type: functional
[20] = Cytotoxicity against rat CTX/TNA2 cells assessed as cell proliferation at 1 mM after 24 hrs by MTT assay relative to control; type: cell-based; conditions: read-out: Activity
[21] = Half life in pH 7.4 PBS buffer after 24 hrs by HPLC analysis; type: physicochemical; conditions: pH 7.4, pH 7.4
C6 [22] = assay: Cytotoxicity against rat C6 cells assessed as LDH release at 0.75 mM after 72 hrs by CytoTox96 non-radioactive assay (reference value: 5.41%); type: functional
[23] = biological target: Nitric oxide synthase, inducible (Rattus norvegicus) (UniProt Q06518); assay: Ex vivo inhibition of iNOS in mesenteric vascular arteries isolated from LPS-induced septic shock Sprague-Dawley rat model assessed as increase in noradrenaline-mediated vasoconstriction by measuring changes in perfusion pressure at 0.06 uM preincubated for 30 mins followed by noradrenaline treatment
Sequence of Nitric oxide synthase, inducible (Rattus norvegicus) (Q06518 whole entry, the tested form may be a part): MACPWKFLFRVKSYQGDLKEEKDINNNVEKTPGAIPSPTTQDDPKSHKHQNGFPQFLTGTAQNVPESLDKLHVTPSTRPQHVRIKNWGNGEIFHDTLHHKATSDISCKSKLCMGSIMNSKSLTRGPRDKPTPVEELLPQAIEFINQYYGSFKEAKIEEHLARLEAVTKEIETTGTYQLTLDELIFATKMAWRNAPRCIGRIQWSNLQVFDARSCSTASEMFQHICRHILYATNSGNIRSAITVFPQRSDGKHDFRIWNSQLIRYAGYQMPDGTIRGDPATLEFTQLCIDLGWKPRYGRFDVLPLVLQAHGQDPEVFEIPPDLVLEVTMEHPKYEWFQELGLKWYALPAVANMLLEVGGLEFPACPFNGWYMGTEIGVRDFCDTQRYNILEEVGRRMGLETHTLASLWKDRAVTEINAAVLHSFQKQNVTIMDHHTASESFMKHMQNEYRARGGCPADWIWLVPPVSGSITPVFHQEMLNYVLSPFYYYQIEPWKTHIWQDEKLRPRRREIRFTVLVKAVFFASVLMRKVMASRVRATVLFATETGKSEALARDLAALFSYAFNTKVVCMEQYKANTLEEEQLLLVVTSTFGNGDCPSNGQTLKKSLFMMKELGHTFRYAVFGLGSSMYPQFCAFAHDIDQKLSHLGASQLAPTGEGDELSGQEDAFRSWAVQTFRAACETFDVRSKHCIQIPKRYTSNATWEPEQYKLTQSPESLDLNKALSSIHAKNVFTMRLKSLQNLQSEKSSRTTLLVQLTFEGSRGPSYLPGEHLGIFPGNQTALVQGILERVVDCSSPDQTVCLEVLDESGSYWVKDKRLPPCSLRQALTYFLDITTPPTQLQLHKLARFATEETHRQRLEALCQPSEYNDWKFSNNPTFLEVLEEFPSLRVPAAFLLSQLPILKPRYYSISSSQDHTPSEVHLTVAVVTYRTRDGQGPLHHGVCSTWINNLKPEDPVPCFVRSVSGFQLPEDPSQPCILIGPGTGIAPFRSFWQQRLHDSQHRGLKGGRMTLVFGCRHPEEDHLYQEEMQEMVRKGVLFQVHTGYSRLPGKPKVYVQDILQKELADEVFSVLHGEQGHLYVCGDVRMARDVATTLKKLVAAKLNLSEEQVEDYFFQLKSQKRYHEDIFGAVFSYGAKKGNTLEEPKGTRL

[24] = Half life in pH 9 NaOH solution after 24 hrs by HPLC analysis; type: physicochemical; conditions: pH 9, pH 9
C6 [25] = assay: Cytotoxicity against rat C6 cells assessed as cell proliferation at 1.5 mM after 24 hrs by MTT assay relative to control; type: functional; conditions: C6, 24 h, read-out: Activity
C6 [26] = assay: Cell cycle arrest in rat C6 cells assessed as accumulation at S phase at 1.5 mM after 72 hrs by propidium iodide staining based flow cytometry (reference value: 22.64%); type: functional
C6 [27] = assay: Cytotoxicity against rat C6 cells assessed as LDH release at 2 mM after 72 hrs by CytoTox96 non-radioactive assay (reference value: 5.41%); type: functional

CC(=N)NCc1cccc(CNC(=O)[C@@H](N)C(C)C)c1
IC50 [1]: > 10 µM

CC(=N)NCc1cccc(CNC(=O)[C@@H](N)CC(N)=O)c1
IC50 [1]: > 10 µM

CC(=N)NCc1cccc(CNC(=O)[C@@H](N)Cc2ccccc2)c1
IC50 [1]: > 10 µM

CC(=N)NCc1cccc(CNC(=O)[C@@H](N)Cc2ccc(O)cc2)c1
IC50 [1]: > 10 µM

CC(=N)NCc1cccc(CNC(=O)[C@@H](N)CCC(=O)O)c1
Ratio IC50 [2]: 8
IC50 (Nitric oxide synthase 3): 10 µM
IC50 [1]: 1.23 µM

CC(=N)NCc1cccc(CNC(=O)[C@@H](N)CO)c1
IC50 [1]: > 10 µM

CC(=N)NCc1cccc(CNC(=O)[C@@H](N)Cc2cnc[nH]2)c1
Ratio IC50 [2]: > 1870
IC50 (Nitric oxide synthase 3): > 1000 µM
IC50 [1]: 0.534 µM

CC(=N)NCc1cccc(CNC(=O)[C@@H](N)CC(=O)O)c1
Ratio IC50 [2]: 323
IC50 (Nitric oxide synthase 3): 331 µM
IC50 [1]: 1.02 µM

CC(=N)NCc1cccc(CNC(=O)[C@@H](N)CC(C)C)c1
Ratio IC50 [2]: 1180
IC50 (Nitric oxide synthase 3): 300 µM
IC50 [1]: 0.253 µM

CC(=N)NCc1cccc(CNC(=O)[C@@H]2CCCN2)c1.Cl.Cl
viability at 48 h, 1000 µM [3]: 125%
Activity (C6 [4]): 26.54%
growth at 250 µM (C6 [5]): 80.4%
half-life [6]: 11 h
Activity [7]: Non-Toxic
Ratio IC50 [2]: 4570
IC50 (Nitric oxide synthase 1): > 10 µM
inhibition (C6 [8]): Dose-dependent effect
Activity (C6 [9]): 23.27%
half-life [10]: > 24 h
growth at 1000 µM (C6 [11]): 77.5%
Activity (C6 [12]): 27.21%
growth at 1500 µM (C6 [13]): 63.2%
IC50 (Nitric oxide synthase 3): 265 µM
growth at 1000 µM (C6 [14]): 118%
growth at 2000 µM (C6 [15]): ≤ 89.5%
Ratio IC50 [16]: > 172
growth at 2000 µM (C6 [17]): 55.2%
Activity (C6 [18]): 71.79%
Activity (C6 [19]): 16.78%
viability at 24 h, 1000 µM [20]: 122%
half-life [21]: > 24 h
Activity (C6 [22]): 20.99%
inhibition [23]: Active
half-life [24]: > 24 h
IC50 [1]: 0.058 µM
growth at 1500 µM (C6 [25]): 114%
Activity (C6 [26]): 12.12%
Activity (C6 [27]): <=25.52%
